The record followed here is patent US8575091B1, “Amylin analogues and pharmaceutical compositions thereof” (Novo Nordisk A/S, priority 2012, dated 2013).

Experiment [1] concerns the target T1, human calcitonin receptor (Homo sapiens, UniProt P30988).
T1 construct: expressed in transfected cells
T1 sequence (P30988 25-474): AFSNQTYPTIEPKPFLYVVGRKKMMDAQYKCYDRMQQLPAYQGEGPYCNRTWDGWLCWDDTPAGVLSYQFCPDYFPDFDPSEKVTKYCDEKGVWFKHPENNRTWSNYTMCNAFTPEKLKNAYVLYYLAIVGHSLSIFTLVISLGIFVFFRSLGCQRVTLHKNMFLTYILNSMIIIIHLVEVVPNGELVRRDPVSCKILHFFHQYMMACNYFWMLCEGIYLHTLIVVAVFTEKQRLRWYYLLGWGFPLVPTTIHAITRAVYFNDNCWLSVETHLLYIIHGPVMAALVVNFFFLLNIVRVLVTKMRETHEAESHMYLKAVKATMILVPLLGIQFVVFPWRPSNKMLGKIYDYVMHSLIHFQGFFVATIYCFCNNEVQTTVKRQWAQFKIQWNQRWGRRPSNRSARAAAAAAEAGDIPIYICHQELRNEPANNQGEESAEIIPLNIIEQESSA
Put plainly: Assay (II)a functional assay, human calcitonin receptor (CRE luciferase, BHK cells).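 Also: luminescence from a CRE-driven luciferase reporter, read by single photon counting after cells were exposed to test samples for 3 h at 37 °C under 5% CO2.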 To be noted: read-out: hCTR funct. EC50. It is filed as cell-based.

Experiment [2] has as its target T2, human amylin receptor (Homo sapiens, UniProt O60896+P30988).
T2 construct: expressed in transfected cells
T2 sequence (P30988 25-474): T1 sequence (P30988 25-474)
T2 sequence (O60896 24-148 partner): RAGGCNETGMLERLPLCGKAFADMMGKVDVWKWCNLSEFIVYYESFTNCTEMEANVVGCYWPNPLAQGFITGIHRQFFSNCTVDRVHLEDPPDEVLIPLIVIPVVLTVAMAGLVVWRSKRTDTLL
The experiment can be described thus: Assay (V) binding to the human amylin receptor (SPA, 125I-rat amylin). Particulars: human amylin receptor membranes, SPA; read-out: hAmylin-R bind IC50. In a few lines:
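IC50, taken as receptor affinity, came from one-site binding competition analysis of scintillation proximity counts. Amylin 3(a)/CRE-luc cell membranes (35 ng/μL final) were mixed with SPA beads (0.05 mg/well) in 50 mM Hepes pH 7.4 containing CaCl2, MgCl2, 0.1% OA and 0.02% Tween20.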

In experiment [3] the target is T3, human amylin receptor (amylin 3(a) receptor: human calcitonin receptor + RAMP-3) (Homo sapiens, UniProt O60896+P30988).
T3 construct: expressed in transfected cells
T3 sequence (P30988 25-474): T1 sequence (P30988 25-474)
T3 sequence (O60896 24-148 partner): T2 sequence (O60896 24-148 partner)
Put plainly: Assay (II)a functional assay, human amylin receptor (CRE luciferase, BHK cells). It is filed as cell-based. Particulars: for Ratio hCT/hAmylin funct.: Table 6, human functional selectivity (hCTR EC50 / hAmylin-R EC50); for EC50: functional assay, human amylin receptor, read-out: hAmylin-R funct. EC50.

Experiment [4] concerns the target T1, human calcitonin receptor. The experiment can be described thus: Assay (VII) binding to the human calcitonin receptor (SPA, 125I-Calcitonin).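 Also: cell membranes coupled to SPA beads, competitive displacement read by scintillation counting, IC50 derived from a one-site competition fit as a measure of receptor affinity.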 Particulars: read-out: hCTR bind IC50.

Numbered stars: 1 amine (or outer) side, 2 acyl side, 3 side chain; on linkers, the order of the positions; unused ones are H or OH. Bridge positions count the residues as written; N and C are the ends. Side chains are listed from the residue outwards. Peptide text beside a SMILES is read from it. * marks the point of attachment. C20 diacid = O=C(O)CCCCCCCCCCCCCCCCCCC(=O)*; γGlu = O=C(O)[C@H](CCC(=O)[*:2])N[*:1]

One may read the EC50 as the concentration that produces a half-maximal response. One may read the IC50 as the concentration at which inhibition is half-maximal. On to `CC[C@H](C)[C@H](NC(=O)[C@H](C)NC(=O)CNC(=O)[C@H](Cc1ccccc1)NC(=O)[C@H](CC(N)=O)NC(=O)[C@@H]1CCCN1C(=O)[C@H](CO)NC(=O)[C@H](CO)NC(=O)[C@H](Cc1c[nH]cn1)NC(=O)[C@H](CCCNC(=N)N)NC(=O)[C@H](CC(C)C)NC(=O)[C@H](Cc1ccccc1)NC(=O)[C@H](Cc1c[nH]cn1)NC(=O)[C@H](C)NC(=O)[C@H](CC(C)C)NC(=O)[C@H](CCCNC(=N)N)NC(=O)[C@H](CCC(N)=O)NC(=O)[C@@H](NC(=O)[C@H](C)NC(=O)[C@@H]1CSSC[C@H](NC(=O)[C@H](CCCNC(=N)N)NC(=O)CNC(=O)CC[C@H](NC(=O)CCCCCCCCCCCCCCCCCCC(=O)O)C(=O)O)C(=O)N[C@@H](CC(N)=O)C(=O)N[C@@H]([C@@H](C)O)C(=O)N[C@@H](C)C(=O)N[C@@H]([C@@H](C)O)C(=O)N1)[C@@H](C)O)C(=O)N1CCC[C@H]1C(=O)N[C@@H](CO)C(=O)N[C@@H](CO)C(=O)N[C@H](C(=O)N[C@@H](CC(N)=O)C(=O)N[C@H](C(=O)NCC(=O)N1CCC[C@H]1C(=O)N[C@@H](CC(N)=O)C(=O)N[C@H](C(=O)N[C@@H](Cc1ccc(O)cc1)C(N)=O)[C@@H](C)O)C(C)C)[C@@H](C)O` [Example 102] ({C20 diacid-γGlu}-GRCNTATCATQRLAHFLRHSSPNFGAIPSSTNVGPNTY-NH2; disulfide 3-8), for which the figures for the EC50 in experiment [1] and in experiment [3] were 0.179 nM and 0.062 nM, respectively. Further, the IC50 in experiment [2] was 0.217 nM; in experiment [4], 7.86 nM. For the same compound, the “Ratio hCT/hAmylin funct.” value in experiment [3] is recorded as 2.9.

Take `CC[C@H](C)[C@H](NC(=O)[C@H](C)NC(=O)CNC(=O)[C@H](Cc1ccccc1)NC(=O)[C@H](CC(N)=O)NC(=O)[C@@H]1CCCN1C(=O)[C@H](CO)NC(=O)[C@H](CO)NC(=O)[C@H](Cc1c[nH]cn1)NC(=O)[C@H](CCCNC(=N)N)NC(=O)[C@H](CC(C)C)NC(=O)[C@H](Cc1ccccc1)NC(=O)[C@H](CCC(=O)O)NC(=O)[C@H](C)NC(=O)[C@H](CC(C)C)NC(=O)[C@H](CCCNC(=N)N)NC(=O)[C@H](CCC(N)=O)NC(=O)[C@@H](NC(=O)[C@H](C)NC(=O)[C@@H]1CSSC[C@H](NC(=O)[C@@H](N)CCCCNC(=O)CC[C@H](NC(=O)CC[C@H](NC(=O)CCCCCCCCCCCCCCCCCCC(=O)O)C(=O)O)C(=O)O)C(=O)N[C@@H](CC(N)=O)C(=O)N[C@@H]([C@@H](C)O)C(=O)N[C@@H](C)C(=O)N[C@@H]([C@@H](C)O)C(=O)N1)[C@@H](C)O)C(=O)N1CCC[C@H]1C(=O)N[C@@H](CO)C(=O)N[C@@H](CO)C(=O)N[C@H](C(=O)N[C@@H](CC(N)=O)C(=O)N[C@H](C(=O)NCC(=O)N[C@@H](Cc1c[nH]cn1)C(=O)N[C@@H](CCC(=O)O)C(=O)N[C@H](C(=O)N[C@@H](Cc1ccc(O)cc1)C(N)=O)[C@@H](C)O)C(C)C)[C@@H](C)O` [Example 104] (H-K([γGlu-γGlu-C20 diacid])CNTATCATQRLAEFLRHSSPNFGAIPSSTNVGHETY-NH2; disulfide 2-7): the EC50 amounted to 7.05 nM in experiment [1] and 0.445 nM in experiment [3]. Besides, the IC50 in experiment [2] stood at 0.525 nM; in experiment [4] it was 15.2 nM.

`CC[C@H](C)[C@H](NC(=O)[C@H](C)NC(=O)CNC(=O)[C@H](Cc1ccccc1)NC(=O)[C@H](CC(N)=O)NC(=O)[C@@H]1CCCN1C(=O)[C@H](CO)NC(=O)[C@H](CO)NC(=O)[C@H](Cc1c[nH]cn1)NC(=O)[C@H](CCCNC(=N)N)NC(=O)[C@H](CC(C)C)NC(=O)[C@H](Cc1ccccc1)NC(=O)[C@H](CC(N)=O)NC(=O)[C@H](C)NC(=O)[C@H](CC(C)C)NC(=O)[C@H](CCCNC(=N)N)NC(=O)[C@H](CCC(N)=O)NC(=O)[C@@H](NC(=O)[C@H](C)NC(=O)[C@@H]1CSSC[C@H](NC(=O)[C@@H](N)CCCCNC(=O)CC[C@H](NC(=O)CCCCCCCCCCCCCCC(=O)O)C(=O)O)C(=O)N[C@@H](CC(N)=O)C(=O)N[C@@H]([C@@H](C)O)C(=O)N[C@@H](C)C(=O)N[C@@H]([C@@H](C)O)C(=O)N1)[C@@H](C)O)C(=O)N1CCC[C@H]1C(=O)N[C@@H](CO)C(=O)N[C@@H](CO)C(=O)N[C@H](C(=O)N[C@@H](CC(N)=O)C(=O)N[C@H](C(=O)NCC(=O)N[C@@H](Cc1c[nH]cn1)C(=O)N[C@@H](CC(N)=O)C(=O)N[C@H](C(=O)N[C@@H](Cc1ccc(O)cc1)C(N)=O)[C@@H](C)O)C(C)C)[C@@H](C)O` [Example 111]: the EC50 in experiment [1] is 2.21 nM; in experiment [3], 0.034 nM. The values for the IC50 in experiment [2] and in experiment [4] were 0.58 nM and 10.8 nM, respectively.

Turning to `CC[C@H](C)[C@H](NC(=O)[C@H](C)NC(=O)CNC(=O)[C@H](Cc1ccccc1)NC(=O)[C@H](CC(N)=O)NC(=O)[C@@H]1CCCN1C(=O)[C@H](CO)NC(=O)[C@H](CO)NC(=O)[C@H](Cc1c[nH]cn1)NC(=O)[C@H](CCCNC(=N)N)NC(=O)[C@H](CC(C)C)NC(=O)[C@H](Cc1ccccc1)NC(=O)[C@H](CC(N)=O)NC(=O)[C@H](C)NC(=O)[C@H](CC(C)C)NC(=O)[C@H](CCCNC(=N)N)NC(=O)[C@H](CCC(N)=O)NC(=O)[C@@H](NC(=O)[C@H](C)NC(=O)[C@@H]1CSSC[C@H](NC(=O)[C@@H](N)CCCCNC(=O)CC[C@H](NC(=O)CCCCCCCCCCCCC(=O)O)C(=O)O)C(=O)N[C@@H](CC(N)=O)C(=O)N[C@@H]([C@@H](C)O)C(=O)N[C@@H](C)C(=O)N[C@@H]([C@@H](C)O)C(=O)N1)[C@@H](C)O)C(=O)N1CCC[C@H]1C(=O)N[C@@H](CO)C(=O)N[C@@H](CO)C(=O)N[C@H](C(=O)N[C@@H](CC(N)=O)C(=O)N[C@H](C(=O)NCC(=O)N[C@@H](Cc1c[nH]cn1)C(=O)N[C@@H](CC(N)=O)C(=O)N[C@H](C(=O)N[C@@H](Cc1ccc(O)cc1)C(N)=O)[C@@H](C)O)C(C)C)[C@@H](C)O` [Example 112], the EC50 in experiment [1] turned out to be 1.09 nM; in experiment [3], 0.028 nM. Besides, the IC50 in experiment [2] was found to be 1.04 nM; in experiment [4], 24.3 nM.

In the case of `CC[C@H](C)[C@H](NC(=O)[C@H](C)NC(=O)CNC(=O)[C@H](Cc1ccccc1)NC(=O)[C@H](CC(N)=O)NC(=O)[C@@H]1CCCN1C(=O)[C@H](CO)NC(=O)[C@H](CO)NC(=O)[C@H](Cc1c[nH]cn1)NC(=O)[C@H](CCCNC(=N)N)NC(=O)[C@H](CC(C)C)NC(=O)[C@H](Cc1ccccc1)NC(=O)[C@H](CC(N)=O)NC(=O)[C@H](C)NC(=O)[C@H](CC(C)C)NC(=O)[C@H](CCCNC(=N)N)NC(=O)[C@H](CCC(N)=O)NC(=O)[C@@H](NC(=O)[C@H](C)NC(=O)[C@@H]1CSSC[C@H](NC(=O)[C@@H](N)CCCCNC(=O)CC[C@H](NC(=O)CCCCCCCCCCCCCCCCC(=O)O)C(=O)O)C(=O)N[C@@H](CC(N)=O)C(=O)N[C@@H]([C@@H](C)O)C(=O)N[C@@H](C)C(=O)N[C@@H]([C@@H](C)O)C(=O)N1)[C@@H](C)O)C(=O)N1CCC[C@H]1C(=O)N[C@@H](CO)C(=O)N[C@@H](CO)C(=O)N[C@H](C(=O)N[C@@H](CC(N)=O)C(=O)N[C@H](C(=O)NCC(=O)N[C@@H](Cc1c[nH]cn1)C(=O)N[C@@H](CC(N)=O)C(=O)N[C@H](C(=O)N[C@@H](Cc1ccc(O)cc1)C(N)=O)[C@@H](C)O)C(C)C)[C@@H](C)O` [Example 113], the values for the EC50 in experiment [1] and in experiment [3] were 5.85 nM and 0.096 nM, respectively. For the same compound, the IC50 in experiment [2] is 0.382 nM; in experiment [4], 22.7 nM.

With `CC[C@H](C)[C@H](NC(=O)[C@H](C)NC(=O)CNC(=O)[C@H](Cc1ccccc1)NC(=O)[C@H](CC(N)=O)NC(=O)[C@@H]1CCCN1C(=O)[C@H](CO)NC(=O)[C@H](CO)NC(=O)[C@H](Cc1c[nH]cn1)NC(=O)[C@H](CCCNC(=N)N)NC(=O)[C@H](CC(C)C)NC(=O)[C@H](Cc1ccccc1)NC(=O)[C@H](Cc1c[nH]cn1)NC(=O)[C@H](C)NC(=O)[C@H](CC(C)C)NC(=O)[C@H](CCCNC(=N)N)NC(=O)[C@H](CCC(N)=O)NC(=O)[C@@H](NC(=O)[C@H](C)NC(=O)[C@@H]1CSSC[C@H](NC(=O)[C@@H](N)CCCCNC(=O)CC[C@H](NC(=O)CCCCCCCCCCCCCCCCCCC(=O)O)C(=O)O)C(=O)N[C@@H](CC(N)=O)C(=O)N[C@@H]([C@@H](C)O)C(=O)N[C@@H](C)C(=O)N[C@@H]([C@@H](C)O)C(=O)N1)[C@@H](C)O)C(=O)N1CCC[C@H]1C(=O)N[C@@H](CO)C(=O)N[C@@H](CO)C(=O)N[C@H](C(=O)N1CCC[C@H]1C(=O)N[C@H](C(=O)NCC(=O)N1CCC[C@H]1C(=O)N[C@@H](CC(N)=O)C(=O)N[C@H](C(=O)N[C@@H](Cc1ccc(O)cc1)C(N)=O)[C@@H](C)O)C(C)C)[C@@H](C)O` [Example 116] (H-K([γGlu-C20 diacid])CNTATCATQRLAHFLRHSSPNFGAIPSSTPVGPNTY-NH2; disulfide 2-7), the EC50 was 0.345 nM in experiment [1] and 0.071 nM in experiment [3]. The results for the IC50 in experiment [2] and in experiment [4] were 0.082 nM and 2.04 nM, respectively. For the same compound, in experiment [3], the “Ratio hCT/hAmylin funct.” value was 4.9.
